Read-outs that look alike come from different tables or passages of the source. No end group written: not given here.
How the values were obtained:
[1] = system: E. coli W3110; assay: Time-killing kinetic assay, E. coli; format: cell-based, Escherichia coli; details: 8× MIC, full MHB pH 7.4, 0-6 h, n = 6
Procedure: (§1) Time-Killing Kinetic Assay
(§2) Single colonies of E. coli W3110 and K. pneumoniae NCTC418 were picked and grown overnight with shaking (180 rpm) in LB (Sigma-Aldrich, Buchs, Switzerland) medium 5 mL overnight at 37 °C. The overnight bacterial cultures were diluted to OD600 = 0.002 (2 × 10^6 CFU/mL) in fresh MHB medium. Stock solutions of AMPs in sterilized milliQ water were prepared in 1 mg/mL and were diluted to two times more than required concentration in fresh MHB (Sigma- Aldrich, Buchs, Switzerland) medium at pH 7.4. 100 μL of prepared bacteria solution in MHB and 100 μL of samples in MHB were mixed in a 96-well microtiter plate (TPP, untreated, Corning Incorporated, Kennebunk, USA). Untreated bacteria at 1 × 10^6 CFU/mL were used as a growth control. 96-well microtiter plates were incubated in 37 °C with shaking (180 rpm). Surviving bacteria were quantified at 0, 0.5, 1, 2, 4 and 6 h by plating 10 -fold dilutions of the sample in sterilized normal saline on LB agar plates. LB agar plates were incubated at 37 °C for 10 h, and the number of individual colonies was counted at each time point. The assay was performed in triplicate in a biosafety level 2 lab. […]

[2] = system: K. pneumoniae NCTC418; assay: Time-killing kinetic assay, K. pneumoniae; format: cell-based, Klebsiella pneumoniae; details: 8× MIC, full MHB pH 7.4, 0-6 h, n = 6
Procedure: as §1, §2

[3] = system: E. coli BW25113 sbmA::kan; details: Table S1, sbmA::kan mutant, 16-20 h at 37 °C
Procedure: (§3) Minimum inhibitory concentration assay
(§4) Antimicrobial activity was assayed against P. aeruginosa PAO1, K. pneumoniae NCTC418, E. coli W3110, A. baumannii ATCC 19606, methicillin-resistant S. aureus COL (MRSA), and for selected peptides on P. aeruginosa PA14 and the polymyxin-B-resistant derivative PA14 2P4, as well as the clinical isolates ZEM-1A and ZEM9A, K. pneumoniae OXA-48, S. aureus Newman, Enterobacter cloacae and Burkholderia cenocepacia. The minimal inhibitory concentration (MIC) was determined by using broth microdilution method. A colo ny of bacteria was picked and grown in Luria-Bertani (LB) medium overnight at 37°C. For E. coli BW25113 sbmA::kan the medium was supplemented with 25 mg/L of kanamycin. The next day, the culture was then regrown in LB medium to log phase (OD600 = 0.6 to 0.8), which lasted approximately 4 h, and diluted to an OD600 of 0.022 in the desired medium. Stock solutions of 1 mg/mL of the samples were prepared in sterilized milliQ water and diluted to the beginning concentration of 64 μg/mL in 300 μL Mueller Hinton (MH)-medium. The diluted samples were added to first well of 96-well microtiter plate (TPP, untreated, Faust Laborbedarf, AG, Schaffhausen) and diluted serially by ½. Finally, 4 μL of the bacterial suspension was inoculated into the sample solutions (150 μL/well) with a final inoculation of about 5∙10^5 CFU/mL. The plates were then incubated at 37°C for 15-18h. For each assay, sterility (broth only) and growth control (broth with bacterial inoculum, without antibiotics) were checked with two columns in the plate. The next day, 15 μL of 3-(4,5-dimethylthiazol-2-yl)-2,5-diphenyltetrazolium bromide (MTT) was added to each well of the plate, such a way that MIC was defined as the lowest concentration of the peptide that inhibited visible growth of the tested […]
(§5) Table S1. Activity of stereorandomized and diastereomeric oncocins against E. coli BW25113 WT and BW25113 sbmA::kan mutant in full and 12.5% MH, at pH 7.4. […]
(§6) a) Minimum inhibitory concentration (MIC, μg/mL) was determined on E. coli BW25113 WT and […]

[4] = system: E. coli BW25113 WT; details: Table S1, 16-20 h at 37 °C
Procedure: as §3, §4, §5, §6

[5] = system: E. coli ribosome, U2506 of the 23S rRNA; assay: Ribosome footprinting (CMCT modification of U2506); format: binding; details: 1 μM peptide, 10.5 μM CMCT, purified E. coli ribosomes (5 pmol), 25 °C; primer extension, sequencing gel
Procedure: A 5 mL culture of E. coli MG1655 (WT-cells) was grown in LB overnight (220 rpm, 37 °C). One liter LB medium was inoculated, and bacteria were grown to OD = 0.6 (220 rpm. 37 °C); cells were centrifuged in centrifuge bottles, and the pellet was resuspended in ice-cold water and transferred in 50 mL falcon tubes. Falcon tubes were centrifuged, the supernatant was removed, the pellet was resuspended in 15 mL polysome buffer (TRIS/HCl pH 7.5 20 mM, NH4Cl 100 mM, MgCl2 10 mM, EDTA 0.5 mM, β-mercaptoethanol 60 mM), frozen dropwise in N2 (l), and stored at −80 °C. The cells were ground in CryoMil with the standard program (1 min precooling, 2 min grinding 5/s, 2 min cooling, 2 min grinding 5/s). The powder was transferred in 50 mL falcon tubes containing N2 (l) and stored at −80 °C. The lysates were thawed with a water bath (30 °C), put on ice, transferred to precooled Eppendorf tubes, and centrifuged (5000 g, 2 min, 4 °C). The clear lysate was transferred to new precooled tubes, centrifuged (14 000 g, 10 min, 4 °C), and the supernatant was transferred to new precooled tubes. 300 mL of clear lysate was loaded on a 10–50% sucrose gradient in CMCT buffer (K-borate buffer pH 8 80 mM, MgCl2 25 mM, NH4Cl 100 mM) and ultracentrifuged (3 h, 234 050 g, 4 °C). The fractions containing monosomes and polysomes were collected and ultracentrifuged overnight (16 h, 260 800 g, 4 °C). The supernatant was discarded, and the pellet was washed with ice-cold CMCT buffer. The ribosomes were resuspended in 100 μL CMCT buffer with a mini magnetic stirring bar and stored on ice. The concentration of ribosomes was measured in 1/200 dilution in water.
Ribosomes (5 pmol) were mixed with 8 μL of CMCT buffer, the compound of interest 1 μM, and water to a final volume of 20 μL in a precooled tube and incubated at 25 °C for 10 min. 20 μL of CMCT (10.5 μM) in water was added and incubated at 25 °C for 30 min. The reaction was stopped with 160 μL of EDTA (30 μM), and the samples were stored on ice.
160 μL portion of RNA resuspension buffer and 40 μL of 10% SDS were added, and the samples were vigorously resuspended. 400 μL of prewarmed acid phenol was added, and the samples were incubated on a thermomixer (5 min, 1200 rpm, 65 °C). The samples were put on ice for 5 min and centrifuged (5 min, 14 000 g, RT). The watery phase was transferred to a new precooled tube, 400 μL of phenol–chloroform–isoamyl alcohol (4 °C) was added, and the samples were mixed (5 min, 1200 rpm, RT). The samples were centrifuged again (5 min, 14 000g, RT), and the watery phase was transferred to another precooled tube. 34 μL of 3 M NaOAc pH 5.5, 0.8 μL of Glycoblue and 400 μL of isopropanol were added, and the samples were incubated for 3 h at −80 °C. The samples were then centrifuged (40 min, 21 000g, 4 °C), and the pellet was washed with ice-cold 70% EtOH. The residual liquid was removed, and the samples were dried (5 min, 37 °C). The samples were resuspended in 20 μL of water, the concentration was measured, and the samples were −80 °C.
Primers designed to probe the positions 2506 of the 23S rRNA (5-[sequence]-3′) were labeled with radioactive phosphate (γ^32 P-ATP). […] To prepare primers for one reaction, 1 μL of primer (0.3 μM), 0.4 μL of 5× PNK-buffer, 0.25 μL of water, 0.2 μL of γ^32 P-ATP, and 0.15 μL of T4 PNK were mixed and incubated at 37 °C.

[6] = system: P. aeruginosa PA14 4.13 (phoQ); details: for MIC P. aeruginosa PA14 4.13: supplement CSV
[7] = 12.5% Müller-Hinton medium pH 7.4
[8] = full Müller-Hinton medium pH 7.4

## VDKPPYLPRPRPPRRIYNR [sr9Cterm-Onc] (VDKPPYLPRPRPPRRIYNR-NH2; also: residues 11-19 stereorandomized (1:1 L/D mixture))
[1]
  Killing profile against E. coli: comparable kinetics to L-Onc
[2]
  Killing profile against K. pneumoniae: comparable kinetics to L-Onc
[3]; [7]
  MIC E. coli BW25113 SbmA-, 12.5% MH: 8 µg/mL
[3]; [8]
  MIC E. coli BW25113 SbmA-, Full MH: > 64 µg/mL
[4]; [7]
  MIC E. coli BW25113 WT, 12.5% MH: 4 µg/mL
[4]; [8]
  MIC E. coli BW25113 WT, Full MH: 32 µg/mL
[5]
  Protection of U2506 of 23S rRNA from CMCT modification (band at C2507): protected from CMCT modification
[6]; polymyxin B resistant strain, 12.5% MHB pH 7.4, 16–20 h at 37 °C
  MIC P. aeruginosa PA14 4.13 (phoQ), 12.5% MHB: 8 µg/mL
[6]; polymyxin B resistant strain, full MHB pH 7.4, 16–20 h at 37 °C
  MIC P. aeruginosa PA14 4.13 (phoQ), full MHB: 64 µg/mL
[6]; 12.5% MH pH 7.4
  MIC P. aeruginosa PA14 4.13: 8 µg/mL
[6]; full MH pH 7.4
  MIC P. aeruginosa PA14 4.13: 64 µg/mL

— paper PMC11571207, “Stereorandomized Oncocins with Preserved Ribosome Binding and Antibacterial Activity” (Journal of Medicinal Chemistry, 2024)
